Drawing on PMC3332334 (Biochemistry, 2012), this text covers 32P-PPi exchange assay for two compounds.

The target in this test is PA1221 (Pseudomonas aeruginosa, UniProt Q9I4B7). As to the kind of experiment: […]-PPi exchange assay. In kind it is biochemical. Conditions: 2 mM ATP, 0.2 mM PPi, 1 mM MgCl2, pH 7.5, 37 °C.

Take `CC[C@H](C)[C@H](N)C(=O)O` [I, Ile]: the 32P-PPi exchange assay result (5 mM Ile) is “Ile, Leu, and Ala utilized as substrates at a lower rate”.
As to `CC(C)[C@H](N)C(=O)O` [V, valine], the 32P-PPi exchange assay result (5 mM valine) was “Valine resulted in the highest activity”.
